Some test systems named below: OVCAR-5; SF-295; CCRF-CEM; SF-268; SK-OV-3; MOLT-4; NCI-H23; A549; Hs-578T; Malme-3M; BT-549; K562; OVCAR-3; HT-29; T47D; ACHN; LOX IMVI; UACC-257; OVCAR-4.
Common to all, as to experiment: NCI tumour cell line growth inhibition, 48 h

Molecules are shown by their SMILES.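 All cell lines were grown in 96-well plates and treated with compound for 48 hours. GI50 = concentration required for 50% inhibition of growth.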 Active and inactive are the calls of the source. Cut-off read from the data, not from the text of the source: active = GI50 up to about 1.1 µM and inactive = higher.

For the compound `COC(=O)[C@@]1(C)CCC[C@]2(C(=O)O)C3Cc4occc4[C@H](C)[C@@H]3CCC21` (some centres undefined), the GI50 with OVCAR-5 is > 100 µM (inactive); in the assay with SF-295, 33.6 µM (inactive); in the assay on CCRF-CEM it was 22.3 µM (inactive); with SF-268, > 100 µM (inactive); in the assay with SK-OV-3 it was 56.1 µM (inactive); in the assay with MOLT-4, 29.2 µM (inactive). Also, the GI50 in the assay with NCI-H23 was > 100 µM (inactive); in the assay with A549, 38.5 µM (inactive); with Hs-578T it was 29.4 µM (inactive); with Malme-3M it was 34.5 µM (inactive); in the assay on BT-549, 91.6 µM (inactive); in the assay on K562, 29.2 µM (inactive). The GI50 in the assay with OVCAR-3 is > 100 µM (inactive); in the assay with HT-29 it was 29 µM (inactive); in the assay with T47D, 40.6 µM (inactive); in the assay with ACHN, 44.2 µM (inactive).

As for `CCOC(=O)c1ccc(-n2cnc(-c3ccc([N+](=O)[O-])cc3)c2)cc1`, the GI50 in the assay with OVCAR-5 is > 100 µM (inactive); in the assay on SF-295, > 100 µM (inactive); in the assay with CCRF-CEM it was > 100 µM (inactive); in the assay with SF-268 it was 56.2 µM (inactive); with SK-OV-3 it was > 100 µM (inactive); in the assay with LOX IMVI, > 100 µM (inactive). The GI50 in the assay on MOLT-4 was > 100 µM (inactive); with NCI-H23, 82.6 µM (inactive); with A549, > 100 µM (inactive); in the assay with Hs-578T, > 100 µM (inactive); in the assay on Malme-3M, 80.7 µM (inactive); in the assay with BT-549, 36.5 µM (inactive). The GI50 in the assay with K562 is > 100 µM (inactive); in the assay on OVCAR-3, 79.8 µM (inactive); with HT-29, > 100 µM (inactive); in the assay on T47D, 95.7 µM (inactive); in the assay on UACC-257, > 100 µM (inactive); with ACHN it was > 100 µM (inactive).

Turning to `Nc1nc(S)nc2snnc12`, the GI50 with OVCAR-5, in the assay on SF-295, with CCRF-CEM, in the assay with SF-268, with SK-OV-3 and in the assay on LOX IMVI was > 100 µM (inactive) throughout. In addition, the GI50 with MOLT-4, in the assay with NCI-H23, in the assay with A549, in the assay on Hs-578T, with Malme-3M and in the assay on BT-549 was > 100 µM (inactive) each time. Moreover, the GI50 in the assay on K562, with OVCAR-3, in the assay on HT-29, in the assay on T47D, in the assay on UACC-257 and in the assay on ACHN was > 100 µM (inactive) throughout.

With `O=C(O)CC[N+]1=CCC(c2ccccc2)(c2ccccc2)O1`, the GI50 in the assay with OVCAR-5, in the assay with SF-295, in the assay with SF-268, in the assay with SK-OV-3, in the assay on OVCAR-4 and in the assay on MOLT-4 was > 100 µM (inactive) throughout. For the same compound, the GI50 in the assay with NCI-H23, in the assay on A549, in the assay with Hs-578T, in the assay with BT-549, with K562 and with OVCAR-3 was > 100 µM (inactive) in each case. Moreover, the GI50 in the assay with HT-29, in the assay with T47D, with UACC-257 and in the assay with ACHN was > 100 µM (inactive) in each case.

Consider `COc1ccc(C(C)NNC(=O)c2cc[n+]([BH2-]C#N)cc2)c(OC)c1` (centres undefined), for which the GI50 was > 100 µM (inactive) in the assay with OVCAR-5; > 100 µM (inactive) in the assay with SF-295; > 100 µM (inactive) in the assay on CCRF-CEM; > 100 µM (inactive) in the assay on SF-268; > 100 µM (inactive) with LOX IMVI; 69.5 µM (inactive) with OVCAR-4. Further, the GI50 with MOLT-4, in the assay with A549, in the assay with Hs-578T, in the assay on Malme-3M, in the assay on BT-549 and with K562 was > 100 µM (inactive) in each case. Moreover, the GI50 with OVCAR-3, in the assay with T47D, with UACC-257 and with ACHN was > 100 µM (inactive) in each case.

As for `CCCCCCn1c(SC)nc(COC(=O)NC)c1COC(=O)NC`, the GI50 in the assay on OVCAR-5 was 19.9 µM (inactive); with SF-295 it was 20.2 µM (inactive); with CCRF-CEM, > 10 µM (inactive); with SF-268, 14.6 µM (inactive); in the assay on SK-OV-3, 19 µM (inactive); with LOX IMVI, 21.3 µM (inactive). In addition, the GI50 in the assay on OVCAR-4 was 9.57 µM (inactive); with MOLT-4, 13 µM (inactive); with NCI-H23, 21.2 µM (inactive); with A549 it was 16.4 µM (inactive); in the assay on Hs-578T it was 20.4 µM (inactive); in the assay with BT-549, 19.5 µM (inactive). The GI50 in the assay on K562 was 19.3 µM (inactive); in the assay with OVCAR-3, 17.9 µM (inactive); with HT-29, 20 µM (inactive); with T47D it was 17.7 µM (inactive); with UACC-257 it was 19.4 µM (inactive); in the assay with ACHN it was 16.6 µM (inactive).

With `[N-]=[N+]=NC1(N=[N+]=[N-])C(=O)NN=C(c2ccccc2)C1=O` (centres undefined), the GI50 in the assay with SF-295 is 61.4 µM (inactive); with CCRF-CEM, 32.2 µM (inactive); with SF-268, 13 µM (inactive); with SK-OV-3, > 100 µM (inactive); in the assay on LOX IMVI it was 37.7 µM (inactive); in the assay on OVCAR-4 it was 57.4 µM (inactive). Further, the GI50 was 28.8 µM (inactive) in the assay on MOLT-4; > 100 µM (inactive) in the assay with NCI-H23; > 100 µM (inactive) in the assay with A549; > 100 µM (inactive) in the assay with Hs-578T; 7.18 µM (inactive) with Malme-3M; > 100 µM (inactive) in the assay with BT-549. Also, the GI50 was 38.9 µM (inactive) with K562; 68.4 µM (inactive) in the assay on OVCAR-3; > 100 µM (inactive) with HT-29; 31.1 µM (inactive) in the assay on T47D; 97.5 µM (inactive) with UACC-257; > 100 µM (inactive) in the assay on ACHN.

As to `Cc1cc(-c2cscn2)c(O)c([N+](=O)[O-])c1`, the GI50 in the assay with OVCAR-5 was > 100 µM (inactive); with SF-295 it was 0.906 µM (active); in the assay with CCRF-CEM, 41 µM (inactive); in the assay with SK-OV-3, 16.1 µM (inactive); in the assay on LOX IMVI it was 29.4 µM (inactive); in the assay on OVCAR-4, 82.6 µM (inactive). Also, the GI50 is 58.3 µM (inactive) with NCI-H23; 46.6 µM (inactive) in the assay with A549; 90.8 µM (inactive) in the assay with Hs-578T; 70.6 µM (inactive) in the assay with Malme-3M; 77.6 µM (inactive) in the assay on BT-549; 34.2 µM (inactive) with K562. Moreover, the values for the GI50 with HT-29, in the assay on UACC-257 and in the assay with ACHN were 89.3 µM (inactive), 63.8 µM (inactive) and 37.2 µM (inactive), respectively.

In the case of `COc1ccc(-c2c(N)n(-c3cccc(C(=O)O)c3)c(=O)c3cc([N+](=O)[O-])ccc23)cc1`, the GI50 in the assay on OVCAR-5, in the assay with SF-295, with CCRF-CEM, in the assay with SF-268, in the assay on SK-OV-3 and in the assay with LOX IMVI was > 100 µM (inactive) in each case. In addition, the GI50 in the assay on OVCAR-4, in the assay on MOLT-4, with NCI-H23, with A549, in the assay with Hs-578T and in the assay on BT-549 was > 100 µM (inactive) in each case. In addition, the GI50 in the assay on K562, in the assay on OVCAR-3, in the assay with HT-29, with T47D, in the assay on UACC-257 and with ACHN was > 100 µM (inactive) each time.

For the compound `O=C(O)CNn1c(SCC(=O)O)nnc(/C=C/c2c(O)ccc3ccccc23)c1=O`, the GI50 was 28.5 µM (inactive) with OVCAR-5; 3.89 µM (inactive) with SF-295; 3.57 µM (inactive) in the assay with CCRF-CEM; 24.4 µM (inactive) in the assay with SF-268; 5.53 µM (inactive) in the assay with SK-OV-3; 7.5 µM (inactive) in the assay on LOX IMVI. In addition, the GI50 was 14.1 µM (inactive) in the assay on OVCAR-4; 17.1 µM (inactive) with NCI-H23; 44.2 µM (inactive) in the assay with A549; 12.8 µM (inactive) with Hs-578T; 40.3 µM (inactive) in the assay on Malme-3M; 15 µM (inactive) in the assay with BT-549. In addition, the GI50 with K562 was 25.5 µM (inactive); in the assay on OVCAR-3, 22.7 µM (inactive); in the assay on HT-29 it was 41.9 µM (inactive); in the assay on T47D it was 19.5 µM (inactive); in the assay on UACC-257 it was 35.9 µM (inactive); in the assay on ACHN, 33.8 µM (inactive).

With `O=C(O[C@H]1[C@@H](O)[C@H](n2cnc3c(Cl)ncnc32)O[C@@H]1COC(c1ccccc1)(c1ccccc1)c1ccccc1)c1ccccc1`, the GI50 is > 100 µM (inactive) with OVCAR-5; 19.8 µM (inactive) in the assay on SF-295; 3.55 µM (inactive) in the assay on CCRF-CEM; 15.4 µM (inactive) with SF-268; 71 µM (inactive) with SK-OV-3; 4.91 µM (inactive) with LOX IMVI. Further, the GI50 is 30.3 µM (inactive) with OVCAR-4; 3.04 µM (inactive) in the assay with MOLT-4; 20.4 µM (inactive) in the assay on NCI-H23; 56.1 µM (inactive) in the assay on A549; 2.9 µM (inactive) in the assay on Hs-578T; 18.2 µM (inactive) in the assay with BT-549. In addition, the GI50 is 3.6 µM (inactive) in the assay with K562; 14.2 µM (inactive) with OVCAR-3; 18.5 µM (inactive) in the assay on HT-29; 3.98 µM (inactive) in the assay on T47D; 14.7 µM (inactive) with UACC-257; 15.7 µM (inactive) with ACHN.

The values above are taken from ChEMBL document CHEMBL1201862, “PubChem BioAssay data set” (2004).
